Assay results taken from PMC8143356, “Mechanism of Resistance Development in E. coli against TCAT, a Trimethoprim-Based Photoswitchable Antibiotic” (Pharmaceuticals, 2021).

Molecular target: T1, dihydrofolate reductase (DHFR) (Escherichia coli, UniProt P0ABQ4, C152S/C85A)
T1 construct: gene folA
T1 sequence (P0ABQ4 1-159 C85A/C152S): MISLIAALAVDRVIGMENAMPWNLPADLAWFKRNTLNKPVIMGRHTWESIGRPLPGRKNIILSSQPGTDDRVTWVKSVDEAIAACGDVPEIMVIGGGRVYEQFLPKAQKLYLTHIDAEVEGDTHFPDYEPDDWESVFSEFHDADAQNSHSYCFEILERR
Test: spectrophotometric DHFR activity assay ([…] nm) with in-house purified E. coli DHFR, triplicates
Type: biochemical

Row | Compound | IC50
1 | COc1cc(Cc2cnc(N)nc2N)cc(OC)c1OCc1cc(Cl)c(/N=N\c2c(Cl)cccc2Cl)c(Cl)c1 [TCATa] | 3.3 ± 2.1 nM
2 | COc1cc(Cc2cnc(N)nc2N)cc(OC)c1OCc1cc(Cl)c(/N=N/c2c(Cl)cccc2Cl)c(Cl)c1 [TCATd] | 3.8 ± 1.4 nM
